Format in all cases: cell-based
Assay [1] concerns the target CFTR (Homo sapiens, UniProt P13569). Kind of assay: Membrane potential dye, Enteroid Assay A. To be noted: for Ent. A Max Activity: chloride transport as % of triple combination control (Enteroid Assay A); for EC50: human enteroid cells, 18-24 hours, acute 10 μM forskolin and 300 nM ivacaftor, read-out: Ent. A EC50. As to the method:
Base medium (ADF+++) consisted of Advanced DMEM/Ham's F12, 2 mM Glutamax, 10 mM HEPES, […] penicillin/streptomycin.
Intestinal enteroid maintenance medium (IEMM) consisted of ADF+++, 1× B27 supplement, 1× N2 supplement, 1.25 mM N-acetyl cysteine, 10 mM Nicotinamide, 50 ng/mL hEGF, 10 nM Gastrin, 1 μg/mL hR-spondin-1, 100 ng/mL hNoggin, TGF-b type 1 inhibitor A-83-01, 100 μg/mL Primocin, 10 μM P38 MAPK inhibitor SB202190.
Bath 1 Buffer consisted of 1 mM MgCl2, 160 mM NaCl, 4.5 mM KCl, 10 mM HEPES, 10 mM Glucose, 2 mM CaCl2).
Chloride Free Buffer consisted of 1 mM Magnesium Gluconate, 2 mM Calcium Gluconate, 4.5 mM Potassium Gluconate, 160 mM Sodium Gluconate, 10 mM HEPES, 10 mM Glucose.
BathI Dye Solution consisted of Bath 1 Buffer, 0.04% Pluronic F127, 20 μM Methyl Oxonol, 30 μM CaCCinh-A01, 30 μM Chicago Sky Blue.
Chloride Free Dye Solution consisted of Chloride Free Buffer, 0.04% Pluronic F127, 20 μM Methyl Oxonol, 30 μM CaCCinh-A01, 30 μM Chicago Sky Blue.
Chloride Free Dye Stimulation Solution consisted of Chloride Free Dye Solution, 10 μM forskolin, 100 μM IBMX, and 300 nM Compound III.
Human intestinal epithelial enteroid cells were obtained from the Hubrecht Institute for Developmental Biology and Stem Cell Research, Utrecht, The Netherlands and expanded in T-Flasks as previously described (Dekkers J F, Wiegerinck C L, de Jonge H R, Bronsveld I, Janssens H M, de Winter-de Groot K M, Brandsma A M, de Jong N W M, Bijvelds M J C, Scholte B J, Nieuwenhuis E E S, van den Brink S, Clevers H, van der Ent C K, Middendorp S and M Beekman J M. A functional CFTR assay using primary cystic fibrosis intestinal organoids. Nat Med. 2013 July;19(7):939-45.).
3. Enteroid Cell Harvesting and Seeding
Cells were recovered in cell recovery solution, collected by centrifugation at 650 rpm for 5 min at 4° C., resuspended in TrypLE and incubated for 5 min at 37° C. Cells were then collected by centrifugation at 650 rpm for 5 min at 4° C. and resuspended in IEMM containing 10 μM ROCK inhibitor (RI). The cell suspension was passed through a 40 μm cell strainer and resuspended at 1×10^6 cells/mL in IEMM containing 10 μM RI. Cells were seeded at 5000 cells/well into multi-well plates and incubated for overnight at 37° C., 95% humidity and 5% CO2 prior to assay.
4. Membrane Potential Dye, Enteroid Assay A
Enteroid cells were incubated with test compound in IEMM for 18-24 hours at 37° C., 95% humidity and 5% CO2. […] Briefly, cells were washed 5 times in Bath 1 Buffer. Bath 1 Dye Solution was added, and the cells were incubated for 25 min at room temperature. Following dye incubation, cells were washed 3 times in Chloride Free Dye Solution. Chloride transport was initiated by addition of Chloride Free Dye Stimulation Solution and the fluorescence signal was read for 15 min. […] Chloride transport was then expressed as a percentage of the chloride transport following treatment with 3 μM N-[(6-amino-2-pyridyl)sulfonyl]-6-(3-fluoro-5-isobutoxy-phenyl)-2-[(4S)-2,2,4-trimethylpyrrolidin-1-yl]pyridine-3-carboxamide, 3 μM (R)-1-(2,2-difluorobenzo[d][1,3]dioxol-5-yl)-N-(1-(2,3-dihydroxypropyl)-6-fluoro-2-(1-hydroxy-2-methylpropan-2-yl)-1H-indol-5-yl)cyclopropanecarboxamide and 300 nM acute N-[2,4-bis(1,1-dimethylethyl)-5-hydroxyphenyl]-1,4-dihydro-4-oxoquinoline-3-carboxamide triple combination control (% Activity).

Assay [2] deals with T1, CFTR (Homo sapiens, UniProt P13569, DEL508-508).
T1 construct: endogenous in cells; host or cells: primary human bronchial epithelial cells from CF subjects (F508del/MF-HBE), differentiated at air-liquid interface
Kind of assay: HBE assay: Ussing chamber assay of CFTR-mediated short-circuit currents. To be noted: for activation at 10 µM: read-out: HBE Activity at 10 μM (%); for Emax: read-out: HBE Max activity (%). Summed up:
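CFTR-mediated Isc (μA/cm²) equals the peak response to apical 20 μM forskolin minus the residual after a 20 μM each BPO/GlyH-101/CFTR inhibitor 172 cocktail, recorded in Ussing chambers at Vhold 0 mV, 37 °C, pH 7.4, with 30 μM apical amiloride. Cells were F508del/MF HBE cultures preincubated 18-24 h with corrector (concentration range or 10 μM) plus 1 μM ivacaftor in 20% human serum.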

Assay [3] has as its target T1, CFTR. Kind of assay: HBE2 assay: Ussing chamber assay of CFTR-mediated short-circuit currents. The settings on record: F508del/MF-HBE cells, with 44 nM potentiator, 18-24 hours, 20% human serum; for Emax: read-out: HBE2 Max activity (%). The method, boiled down: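 Corrector activity read as CFTR-dependent ISC (μA/cm^2): peak forskolin current minus post-inhibitor steady state. Measured at 37 °C, voltage clamp at 0 mV, on F508del/MF-HBE epithelia grown >14 days air-liquid interface in Ussing chambers.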

21 molecules from patent publication US20240150377A1, “MODULATORS OF CYSTIC FIBROSIS TRANSMEMBRANE CONDUCTANCE REGULATOR” (VERTEX PHARMACEUTICALS INCORPORATED, priority 2020, published 2024) can be followed below.

Where two headings read alike, the source gives them in different places.

Sequence of CFTR (Homo sapiens, UniProt P13569) (P13569 with tags, fused parts or gaps DEL508-508): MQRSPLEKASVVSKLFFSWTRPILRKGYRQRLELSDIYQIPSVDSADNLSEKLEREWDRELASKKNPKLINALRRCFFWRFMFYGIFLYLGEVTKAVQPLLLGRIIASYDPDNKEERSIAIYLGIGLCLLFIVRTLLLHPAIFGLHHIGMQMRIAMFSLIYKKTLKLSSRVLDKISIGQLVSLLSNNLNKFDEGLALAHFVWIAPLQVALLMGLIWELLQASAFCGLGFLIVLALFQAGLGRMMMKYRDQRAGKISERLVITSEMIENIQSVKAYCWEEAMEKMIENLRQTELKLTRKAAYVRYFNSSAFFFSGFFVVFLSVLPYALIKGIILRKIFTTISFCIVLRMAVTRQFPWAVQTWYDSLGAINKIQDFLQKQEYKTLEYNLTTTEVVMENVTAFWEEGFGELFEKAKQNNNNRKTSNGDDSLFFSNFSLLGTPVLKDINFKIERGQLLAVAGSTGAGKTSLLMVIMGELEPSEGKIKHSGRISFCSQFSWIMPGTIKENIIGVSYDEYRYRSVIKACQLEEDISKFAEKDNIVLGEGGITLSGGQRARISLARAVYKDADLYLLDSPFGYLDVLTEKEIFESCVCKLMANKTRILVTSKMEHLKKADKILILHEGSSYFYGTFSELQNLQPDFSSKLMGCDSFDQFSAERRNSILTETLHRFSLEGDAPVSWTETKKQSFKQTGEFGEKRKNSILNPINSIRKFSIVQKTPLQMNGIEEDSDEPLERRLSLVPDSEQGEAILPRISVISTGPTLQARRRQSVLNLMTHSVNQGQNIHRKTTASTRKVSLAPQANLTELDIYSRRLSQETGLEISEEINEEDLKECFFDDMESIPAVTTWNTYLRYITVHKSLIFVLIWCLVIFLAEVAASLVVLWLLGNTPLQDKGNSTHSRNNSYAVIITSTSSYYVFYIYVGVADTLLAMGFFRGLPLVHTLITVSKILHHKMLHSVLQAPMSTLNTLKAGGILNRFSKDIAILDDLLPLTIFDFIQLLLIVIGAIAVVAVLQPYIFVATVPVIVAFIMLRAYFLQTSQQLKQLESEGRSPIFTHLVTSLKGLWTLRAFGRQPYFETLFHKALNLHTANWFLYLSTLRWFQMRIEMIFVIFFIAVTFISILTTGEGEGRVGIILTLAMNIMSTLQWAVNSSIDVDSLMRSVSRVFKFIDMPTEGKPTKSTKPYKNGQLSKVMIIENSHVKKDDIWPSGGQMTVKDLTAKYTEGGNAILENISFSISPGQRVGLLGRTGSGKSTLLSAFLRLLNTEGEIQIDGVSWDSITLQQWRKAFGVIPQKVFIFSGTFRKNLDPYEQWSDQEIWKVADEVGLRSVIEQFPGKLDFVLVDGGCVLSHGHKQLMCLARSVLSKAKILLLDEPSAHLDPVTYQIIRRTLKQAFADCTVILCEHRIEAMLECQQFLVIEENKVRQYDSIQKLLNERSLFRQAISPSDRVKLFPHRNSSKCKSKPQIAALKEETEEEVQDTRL
T1 sequence (P13569 with tags, fused parts or gaps DEL508-508): as above

For the molecule `Cc1cccc(C)c1-c1cc2nc(n1)NS(=O)(=O)c1cccc(c1)C(=O)N(Cc1ccc(N3CCOCC3)nc1)[C@H](CC(C)C)CO2` [Compound 976], at CFTR [1] (Table 6), the “Ent. A Max Activity” value is recorded as “+++ (+++ is >60%)” and the EC50 was < 1000 nM.

As to `Cc1cccc(C)c1-c1cc2nc(n1)NS(=O)(=O)c1cccc(c1)C(=O)N(CC1CC3(CCN(C(C)C)CC3)C1)[C@H](CC(C)C)CO2` [Compound 415], at CFTR [1] (Table 7), the “Ent. A Max Activity” value is “+++ (+++ is >60%)” and the EC50 is < 1000 nM.

`CNCCNCC1CN(C)C(=O)c2cccc(c2)S(=O)(=O)Nc2nc(cc(-c3c(C)cccc3C)n2)O1` (centres unmarked) [Compound 1016]: at CFTR [1] (Table 6), the “Ent. A Max Activity” value is given as “+ (+ is <30%)”.

For the molecule `Cc1cccc(C)c1-c1cc2nc(n1)NS(=O)(=O)c1cccc(c1)C(=O)N(Cc1ccc(N3CCN(C)CC3)nc1)[C@H](CC1(C(F)(F)F)CC1)CO2` [Compound 684], at CFTR [1] (Table 7), the “Ent. A Max Activity” value is reported as “+++ (+++ is >60%)” and the EC50 is < 1000 nM.

For the molecule `Cc1cccc(C)c1-c1cc2nc(n1)NS(=O)(=O)c1cccc(c1)C(=O)N(C)CC(CN(CCC(C)(C)C)CCC(C)(C)C)O2` (centres unmarked) [Compound 98, 10-[[bis(3,3-Dimethylbutyl)amino]methyl]-6-(2,6-dimethylphenyl)-12-methyl-2,2-dioxo-9-oxa-2λ^6-thia-3,5,12,19-tetrazatricyclo[12.3.1.14,8]nonadeca-1(18),4(19),5,7,14,16-hexaen-13-one], on CFTR [1] (Table 6), the “Ent. A Max Activity” value is “+++ (+++ is >60%)” and the EC50 is < 1000 nM.

In the case of `Cc1cccc(C)c1-c1cc2nc(n1)NS(=O)(=O)c1cccc(c1)CN(C(=O)CC1CCOCC1)[C@H](CC(C)C)CO2` [Compound 45, (11R)-6-(2,6-Dimethylphenyl)-11-(2-methylpropyl)-12-[2-(oxan-4-yl)acetyl]-9-oxa-2λ^6-thia-3,5,12,19-tetraazatricyclo[12.3.1.14,8]nonadeca-1(17),4,6,8(19),14(18),15-hexaene-2,2-dione], the “Ent. A Max Activity” value at CFTR [1] (Table 7) was “+ (+ is <30%)”.

As to `COC1CCC(CC(=O)N2Cc3cccc(c3)S(=O)(=O)Nc3nc(cc(-c4c(C)cccc4C)n3)OC[C@H]2CC(C)C)CC1` (some centres unmarked) [Compound 1047], the “Ent. A Max Activity” value at CFTR [1] (Table 7) is given as “+ (+ is <30%)”.

Regarding `Cc1cc(CN2C(=O)c3cccc(c3)S(=O)(=O)Nc3nc(cc(-c4c(C)cccc4C)n3)OC[C@H]2CC(C)C)[nH]n1` [Compound 430], on CFTR [1] (Table 6), the “Ent. A Max Activity” value was “+++ (+++ is >60%)” and the EC50 was < 1000 nM.

Consider `CC[C@H](C)Oc1cnc(CN2C(=O)c3cccc(c3)S(=O)(=O)Nc3nc(cc(-c4c(C)cccc4C)n3)OC[C@H]2CCC(C)(C)C)nc1` [Compound 1547], for which the activation at 10 µM on CFTR [2] (HBE assay, 10 μM) is > 60%. Moreover, on CFTR [3], the “HBE2 Activity at 3 μM (%)” value is “+++ (+++ is >60+)”.

With `COC[C@@H](C)N(C)c1cncc(CN2C(=O)c3cccc(c3)S(=O)(=O)Nc3nc(cc(-c4c(C)cccc4C)n3)OC[C@H]2CC(C)(C)C)n1` [Compound 1493], the EC50 at CFTR [2] (HBE assay, read-out: HBE EC50) was < 1 µM. Moreover, the Emax at CFTR [2] (HBE assay) is > 60%. The “HBE2 Activity at 3 μM (%)” value on CFTR [3] is “+++ (+++ is >60+)”.

On to `Cc1cccc(C)c1-c1cc2nc(n1)NS(=O)(=O)c1cccc(c1)C(=O)N(Cc1cncc(N(C)CC3CC3)n1)[C@H](CC(C)(C)C)CO2` [Compound 1507], for which the activation at 10 µM on CFTR [2] (HBE assay, 10 μM) was > 60%. Also, the “HBE2 Activity at 3 μM (%)” value at CFTR [3] is on record as “+++ (+++ is >60+)”.

As for `Cc1cccc(C)c1-c1cc2nc(n1)NS(=O)(=O)c1cccc(c1)C(=O)N(Cc1cncc(N3CCCC[C@H]3C)n1)[C@H](CC(C)(C)C)CO2` [Compound 1506], at CFTR [2], the activation at 10 µM is > 60%. For the same molecule, on CFTR [3], the EC50 was < 1000 nM and the Emax is > 60%.

Regarding `Cc1cccc(C)c1-c1cc2nc(n1)NS(=O)(=O)c1cccc(c1)C(=O)N(Cc1cncc(N3CC[C@H]3C)n1)[C@H](CC(C)(C)C)CO2` [Compound 1512], the activation at 10 µM at CFTR [2] was > 60%. In addition, at CFTR [3], the EC50 is < 1000 nM and the Emax was > 60%.

With `Cc1cccc(C)c1-c1cc2nc(n1)NS(=O)(=O)c1cccc(c1)C(=O)N(Cc1ccnc(N(C)C3CC4(CC4)C3)n1)[C@H](CC(C)(C)C)CO2` [Compound 1448], at CFTR [2] (HBE assay, 10 μM), the activation at 10 µM was > 60%. At CFTR [3], the EC50 is < 1000 nM and the Emax is > 60%.

Take `Cc1cccc(C)c1-c1cc2nc(n1)NS(=O)(=O)c1cccc(c1)C(=O)N(Cc1cncc(N(C)CC(C)C)n1)[C@H](CC(C)(C)C)CO2` [Compound 1519]: the activation at 10 µM on CFTR [2] (HBE assay, 10 μM) is > 60%. Further, on CFTR [3], the EC50 was < 1000 nM and the Emax was > 60%.

Take `CCCOc1cnc(CN2C(=O)c3cccc(c3)S(=O)(=O)Nc3nc(cc(-c4c(C)cccc4C)n3)OC[C@H]2CC2CCC2)nc1` [Compound 1522]: on CFTR [2] (HBE assay, 10 μM), the activation at 10 µM was > 60%. Moreover, on CFTR [3], the “HBE2 Activity at 3 μM (%)” value is listed as “+++ (+++ is >60+)”, the EC50 is < 1000 nM and the Emax was > 60%.

For the molecule `CCCOc1cnc(CN2C(=O)c3cccc(c3)S(=O)(=O)Nc3nc(cc(-c4c(C)cccc4C)n3)OC[C@H]2CC(C)C)nc1` [Compound 1523], the activation at 10 µM on CFTR [2] (HBE assay, 10 μM) was > 60%. On CFTR [3], the “HBE2 Activity at 3 μM (%)” value is reported as “+++ (+++ is >60+)”.

Regarding `CC[C@H](C)Oc1cnc(CN2C(=O)c3cccc(c3)S(=O)(=O)Nc3nc(cc(-c4c(C)cccc4C)n3)OC[C@H]2CC2(C)CC2)nc1` [Compound 1546], the activation at 10 µM at CFTR [2] (HBE assay, 10 μM) is > 60%. Also, the “HBE2 Activity at 3 μM (%)” value at CFTR [3] is given as “+++ (+++ is >60+)”.

Take `Cc1cccc(C)c1-c1cc2nc(n1)NS(=O)(=O)c1cccc(c1)C(=O)N(Cc1ncc(N(C)C(=O)OC(C)C)cn1)[C@H](CC(C)(C)C)CO2` [Compound 1518]: the activation at 10 µM at CFTR [2] (HBE assay, 10 μM) is > 60%. On CFTR [3], the Emax is > 60%.

On to `CCC(C)Oc1cnc(CN2C(=O)c3cccc(c3)S(=O)(=O)Nc3nc(cc(-c4c(C)cccc4C)n3)OC[C@H]2CCC(C)C)nc1` (some centres unmarked) [Compound 1528], for which the activation at 10 µM on CFTR [2] (HBE assay, 10 μM) was > 60%. The “HBE2 Activity at 3 μM (%)” value at CFTR [3] is “+++ (+++ is >60+)”.

Regarding `Cc1cccc(C)c1-c1cc2nc(n1)NS(=O)(=O)c1cccc(c1)C(=O)N(Cc1cncc(N3CCC[C@H]3C3CC3)n1)[C@H](CC(C)(C)C)CO2` [Compound 1495], the EC50 on CFTR [2] (HBE EC50 (μM), HBE assay) is < 1 µM. Also, on CFTR [2], the Emax was > 60%. At CFTR [3], the “HBE2 Activity at 3 μM (%)” value was “+++ (+++ is >60+)”.
